Data from patent US11008346B2, “Beta-lactamase inhibitors” (priority 2014, dated 2021).

Key:
KPC-2 β-lactamase = biological target: T1, KPC-2 β-lactamase (Klebsiella pneumoniae, UniProt Q9F663); experiment: β-lactamase enzyme inhibition, KPC-2; type: biochemical; conditions: imipenem substrate, 300 nm; 15 min at 37° C. preincubation; read-out: IC50 KPC-2 (Class A)
T1 construct: made in house; host or cells: E. coli BL21(DE3)
In short: (§1)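 IC50 values reflect inhibitor concentrations halving the initial hydrolysis rate relative to uninhibited wells. Untagged recombinant enzymes were exposed to inhibitor at 37° C for 15 min before substrate addition: 100 μM nitrocefin for OXA-1 and p99 AmpC, imipenem for KPC-2, cefotaxime for SHV-5, each monitored spectrophotometrically for 10 min.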

[1] = test system: K. pneumoniae A-1797 expressing KPC-2 and VIM-4; experiment: broth microdilution MIC, K. pneumoniae KPC-2 and VIM-4; type: cell-based; conditions: Fixed Mero (meropenem) 4 μg/mL
In short: (§2)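 Potentiation MICs were run by CLSI broth microdilution in cation-adjusted Mueller Hinton broth, with test compound serially diluted 2-fold from 32 to 0.25 μg/mL against a fixed 4 μg/mL beta-lactam overlay. Plates were incubated 16-20 hours at 37° C and the MIC was read visually.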

[2] = test system: K. pneumoniae 156319 expressing KPC-3; experiment: broth microdilution MIC, K. pneumoniae KPC-3; type: cell-based; conditions: Fixed Mero (meropenem) 4 μg/mL
In short: as §2

SHV-5 β-lactamase = biological target: T2, SHV-5 β-lactamase (Klebsiella pneumoniae, UniProt P0A3M1); experiment: β-lactamase enzyme inhibition, SHV-5; type: biochemical
T2 construct: made in house; host or cells: E. coli BL21(DE3)
In short: as §1

[3] = biological target: T3, VIM-2 metallo β-lactamase (Pseudomonas aeruginosa, UniProt Q9K2N0); experiment: β-lactamase enzyme inhibition, VIM-2; type: biochemical; conditions: Nitrocefin 100 μM, 486 nm; 15 min at 37° C. preincubation; read-out: IC50 VIM-2 (Class B)
T3 construct: made in house; host or cells: E. coli BL21(DE3)
In short: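 VIM-2 purified by Q sepharose anion exchange (50 mM Hepes pH 7.5, 0-600 mM NaCl gradient, two runs, >90% purity). Enzyme preincubated with inhibitor 15 min at 37° C; nitrocefin 100 μM final, absorbance at 486 nm followed 10 min. IC50 from initial hydrolysis rates versus inhibitor-free controls.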

p99 AmpC β-lactamase = biological target: T4, p99 AmpC β-lactamase (Enterobacter cloacae, UniProt P05364); experiment: β-lactamase enzyme inhibition, p99 AmpC; type: biochemical
T4 construct: made in house; host or cells: E. coli BL21(DE3)
In short: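 Native untagged E. cloacae p99 AmpC was expressed in E. coli BL21(DE3) and purified by cation exchange and gel filtration. Enzyme was preincubated with inhibitor at 37°C for 15 min.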

[4] = test system: E. cloacae 144200 expressing Class C P99 AmpC; experiment: broth microdilution MIC, E. cloacae P99; type: cell-based; conditions: Fixed CAZ (ceftazidime) 4 μg/mL
In short: as §2

[5] = test system: P. aeruginosa Ps296 expressing VIM-2; experiment: broth microdilution MIC, P. aeruginosa VIM-2; type: cell-based; conditions: Fixed Mero (meropenem) 4 μg/mL
Description: (§3) To determine the ability of test compounds to potentiate the inhibition of the growth of bacterial strains that produce beta-lactamase enzymes, classic cell based broth microdilution MIC assays were employed. Six bacteria strains producing beta-lactamase enzymes were used: E. coli expressing the Class A Extended Spectrum Beta-Lactamase (ESBL) CTX-M-15, E. cloacae expressing the Class C P99, K. pneumoniae expressing the Class A carbapenemase KPC-3, P. aeruginosa expressing the Class B carbapenemase VIM-2, K pneumoniae expressing the class A carbapenemase KPC-2 and the class B carbapenemase VIM-4, and S. aureus producing the Class A penicillinase PC-1. The assay was conducted in Cation Adjusted Mueller Hinton Broth (CAMHB, BD #212322, BD Diagnostic Systems, Sparks, Md.). Bacteria strains were grown for 3-5 hours in CAMBH broth. Test compounds were added to a microtiter plate in 2-fold serial dilutions in CAMHB in a final concentration range of 32 μg/mL to 0.25 μg/ml. An overlay of CAMHB containing a Beta-lactam was added to the compounds at a final static concentration of 4 μg/ml. […] In addition to the titration of test compounds the MICs of a panel of control beta-lactams is also tested to ensure the strains are behaving consistently from test to test. Once the test compound and antibiotics are added the plates can be inoculated according to CLSI broth microdilution method. After inoculation the plates are incubated for 16-20 hours at 37° C., then the Minimal Inhibitory Concentration (MIC) of the test compound is determined visually.
(§4) Using the methodology described above, examples of the current invention were evaluated for their ability to inhibit the growth of β-lactamase-producing bacteria in the presence of a β-lactam antibiotic.
(§5) Representative results are shown in Table 4 where A represents an MIC of the fixed β-lactam antibiotic in the presence of >32 µg/mL of a β-lactamase inhibitor of exemplary compounds, B represents the MIC in the presence of between 8 and 32 µg/mL of a β-lactamase inhibitor of exemplary compounds, and C represents the MIC in the presence of ≤4 µg/mL of a β-lactamase inhibitor of exemplary compounds. NT=Not Tested.

OXA-1 β-lactamase = biological target: T5, OXA-1 β-lactamase (Escherichia coli, UniProt P13661); experiment: β-lactamase enzyme inhibition, OXA-1; type: biochemical; conditions: Nitrocefin 100 μM, 486 nm; 15 min at 37° C. preincubation; read-out: IC50 OXA-1 (Class D)
T5 construct: made in house; host or cells: E. coli BL21(DE3)
In short: as §1

[6] = test system: S. aureus MSSA-7 producing penicillinase PC-1; experiment: broth microdilution MIC, S. aureus PC-1; type: cell-based; conditions: Fixed Pip (piperacillin) 4 μg/mL
Description: as §3, §4, §5

[7] = test system: E. coli ESBL4 expressing CTX-M-15; experiment: broth microdilution MIC, E. coli CTX-M-15; type: cell-based; conditions: Fixed CAZ (ceftazidime) 4 μg/mL
In short: as §2

T2 sequence (P0A3M1 22-286): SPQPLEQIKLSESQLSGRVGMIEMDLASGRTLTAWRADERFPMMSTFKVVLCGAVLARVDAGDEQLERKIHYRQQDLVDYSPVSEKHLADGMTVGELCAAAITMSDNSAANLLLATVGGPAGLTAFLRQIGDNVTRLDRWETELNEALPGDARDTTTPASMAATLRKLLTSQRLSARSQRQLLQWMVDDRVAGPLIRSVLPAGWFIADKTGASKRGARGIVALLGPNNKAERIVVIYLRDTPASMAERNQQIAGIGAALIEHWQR
T1 sequence (Q9F663 25-293, looked up): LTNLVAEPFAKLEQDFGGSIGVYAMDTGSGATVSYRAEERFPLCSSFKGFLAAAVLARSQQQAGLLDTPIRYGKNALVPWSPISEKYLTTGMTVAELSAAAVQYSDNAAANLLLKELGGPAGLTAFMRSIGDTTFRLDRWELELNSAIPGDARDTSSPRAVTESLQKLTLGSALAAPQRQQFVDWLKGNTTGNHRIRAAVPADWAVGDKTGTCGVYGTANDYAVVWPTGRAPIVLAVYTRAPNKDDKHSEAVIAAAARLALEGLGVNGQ
T5 sequence (P13661 26-276): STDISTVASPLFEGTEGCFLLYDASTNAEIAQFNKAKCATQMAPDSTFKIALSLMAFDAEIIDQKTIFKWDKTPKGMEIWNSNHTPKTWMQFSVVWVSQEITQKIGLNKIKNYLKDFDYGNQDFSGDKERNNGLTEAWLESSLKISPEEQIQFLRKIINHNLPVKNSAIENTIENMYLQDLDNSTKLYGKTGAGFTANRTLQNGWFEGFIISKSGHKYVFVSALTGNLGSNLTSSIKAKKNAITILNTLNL
T4 sequence (P05364 21-381): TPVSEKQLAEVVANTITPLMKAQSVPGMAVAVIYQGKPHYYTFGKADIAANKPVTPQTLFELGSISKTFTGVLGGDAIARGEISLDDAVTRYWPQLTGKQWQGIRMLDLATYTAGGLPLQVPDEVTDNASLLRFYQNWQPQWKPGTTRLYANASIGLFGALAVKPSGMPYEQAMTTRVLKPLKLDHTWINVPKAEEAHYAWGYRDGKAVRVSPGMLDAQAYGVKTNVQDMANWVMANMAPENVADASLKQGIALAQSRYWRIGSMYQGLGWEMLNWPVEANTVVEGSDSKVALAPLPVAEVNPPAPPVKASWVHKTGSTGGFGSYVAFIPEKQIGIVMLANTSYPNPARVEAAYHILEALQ

SMILES | IC50 (KPC-2 β-lactamase) | MIC of exemplary compounds in presence of fixed β-lactams, K.P. A-1797 KPC-2 VIM-4 [1] | MIC of exemplary compounds in presence of fixed β-lactams, K.P. 156319 KPC-3 [2] | IC50 (SHV-5 β-lactamase) | IC50 [3] | IC50 (p99 AmpC β-lactamase) | MIC of exemplary compounds in presence of fixed β-lactams, E. cl. 144200 p99 AmpC [4] | MIC of exemplary compounds in presence of fixed β-lactams, P. aerug. Ps296 VIM-2 [5] | IC50 (OXA-1 β-lactamase) | MIC of exemplary compounds in presence of fixed β-lactams, S. aureus MSSA-7 PC-1 [6] | MIC of exemplary compounds in presence of fixed β-lactams, E. coli ESBL4 CTX-M-15 [7]
CN(C)C(=O)CCC(=O)N[C@H]1Cc2cccc(C(=O)O)c2OB1O [Example 15, (R)-3-(3-Dimethylcarbamoyl-propionylamino)-2-hydroxy-3,4-dihydro-2H-benzo[e][1,2]oxaborinine-8-carboxylicacid] | < 100 nM | A (A represents an MIC of the fixed β-lactam antibiotic in the presence of >32 g/mL of a β-lactamase inhibitor) | C (C represents the MIC in the presence of ≤4 g/mL of a β-lactamase inhibitor) | < 100 nM | 10000 to 100000 nM | < 100 nM | C (C represents the MIC in the presence of ≤4 g/mL of a β-lactamase inhibitor) | B (B represents the MIC in the presence of between 8 and 32 g/mL of a β-lactamase inhibitor) | < 100 nM | C (C represents the MIC in the presence of ≤4 g/mL of a β-lactamase inhibitor) | C (C represents the MIC in the presence of ≤4 g/mL of a β-lactamase inhibitor)
NC(=O)NCCC(=O)N[C@H]1Cc2cccc(C(=O)O)c2OB1O [Example 23, (R)-2-Hydroxy-3-(3-ureido-propionylamino)-3,4-dihydro-2H-benzo[e][1,2]oxaborinine-8-carboxylic acid] | < 100 nM | B (B represents the MIC in the presence of between 8 and 32 g/mL of a β-lactamase inhibitor) | C (C represents the MIC in the presence of ≤4 g/mL of a β-lactamase inhibitor) | 100 to 1000 nM | 1000 to 10000 nM | < 100 nM | C (C represents the MIC in the presence of ≤4 g/mL of a β-lactamase inhibitor) | C (C represents the MIC in the presence of ≤4 g/mL of a β-lactamase inhibitor) | < 100 nM | C (C represents the MIC in the presence of ≤4 g/mL of a β-lactamase inhibitor) | C (C represents the MIC in the presence of ≤4 g/mL of a β-lactamase inhibitor)
CC(=O)N[C@H]1Cc2cccc(C(=O)O)c2OB1O [Example 61, (R)-3-Acetylamino-2-hydroxy-3,4-dihydro-2H-benzo[e][1,2]oxaborinine-8-carboxylic acid] | < 100 nM | B (B represents the MIC in the presence of between 8 and 32 g/mL of a β-lactamase inhibitor) | C (C represents the MIC in the presence of ≤4 g/mL of a β-lactamase inhibitor) | 100 to 1000 nM | 1000 to 10000 nM | < 100 nM | C (C represents the MIC in the presence of ≤4 g/mL of a β-lactamase inhibitor) | C (C represents the MIC in the presence of ≤4 g/mL of a β-lactamase inhibitor) | 100 to 1000 nM | C (C represents the MIC in the presence of ≤4 g/mL of a β-lactamase inhibitor) | C (C represents the MIC in the presence of ≤4 g/mL of a β-lactamase inhibitor)
